According to a compilation of properties of binary mixtures (doi:10.1016/j.molliq.2012.02.019):

Experiment: xn = mol fraction of the nth substance listed
Conditions: 101 kPa

COC(=O)OC + CCCCCCCC[N+](C)(CCCCCCCC)CCCCCCCC.[Cl-]
x1 = 1
Conditions | electrical conductivity [S/m] | viscosity [mPa·s]
303.15 K | 0.0001 | 0.55
308.15 K | – | 0.49

CCCCCCCC[N+](C)(CCCCCCCC)CCCCCCCC.[Cl-] + COC(=O)OC
Conditions | electrical conductivity, 298.15 K [S/m] | electrical conductivity, 303.15 K [S/m] | electrical conductivity, 308.15 K [S/m] | electrical conductivity, 313.15 K [S/m] | electrical conductivity, 318.15 K [S/m] | viscosity, 298.15 K [mPa·s] | viscosity, 303.15 K [mPa·s] | viscosity, 308.15 K [mPa·s] | viscosity, 313.15 K [mPa·s] | viscosity, 318.15 K [mPa·s]
x1 = 0.002 | 0.0001 | – | 0.0002 | 0.0003 | 0.0004 | – | – | – | – | –
x1 = 0.006 | – | 0.0003 | 0.0004 | – | 0.0006 | – | – | – | – | –
x1 = 0.011 | 0.0006 | 0.0008 | 0.0009 | 0.001 | 0.0012 | – | – | – | – | –
x1 = 0.015 | 0.0009 | – | 0.0013 | 0.0014 | 0.0015 | – | – | – | – | –
x2 = 0 | – | 0.0035 | 0.0049 | 0.0066 | 0.0087 | – | 1602 | 1067 | 770 | 570
x2 = 0.35 | 0.0047 | 0.0064 | 0.0084 | 0.0108 | 0.0138 | 530 | 400 | 304 | 238 | 200
x2 = 0.55 | 0.0098 | – | 0.016 | – | 0.0249 | 158 | – | 98 | – | 65.2
x2 = 0.67 | – | 0.019 | 0.0236 | 0.0287 | 0.0347 | – | 47.1 | 38.66 | 32.21 | 27.29
x2 = 0.76 | 0.0211 | 0.0259 | – | 0.038 | 0.0452 | 22.51 | 18.86 | – | 13.72 | 11.84
x2 = 0.83 | 0.0235 | 0.0287 | 0.0345 | 0.041 | 0.0482 | 10.27 | 8.87 | 7.71 | 6.91 | 6.15
x2 = 0.88 | – | 0.031 | 0.037 | 0.0438 | 0.0513 | – | 4.56 | 4.11 | 3.7 | 3.36
x2 = 0.92 | 0.0171 | 0.0204 | 0.0246 | – | 0.0342 | 2.52 | 2.27 | 2.07 | – | 1.75
x2 = 0.95 | 0.0076 | 0.0094 | – | 0.014 | 0.0167 | 1.41 | 1.3 | – | 1.13 | 1.06
x2 = 0.98 | 0.0012 | 0.0016 | – | – | 0.002 | 0.79 | 0.75 | – | – | 0.64
